The source of these data is patent US20150093351A1, “MALODOR CONTROL COMPOSITIONS HAVING ACTIVATED ALKENES AND METHODS THEREOF” (The Procter & Gamble Company, priority 2012, published 2015).

Counter-ions that a name gives are not always drawn.

A short description of series [1]: Headspace SPME GC/MS malodor removal by aqueous Composition 3 (butylamine). Particulars: 0.5 wt. % activated alkene in Composition 3, pH 7, no catalyst; 2 hours room temperature, 30 minutes 35° C.; numbers less than 1 = reduced malodor. As for the experimental part: (§1) All activated alkenes are present in Composition 3 in an amount of 0.5 wt. %, except PEG 400 Dimethylacrylate which is present in Composition 3 in amount of 1.0 wt. %.
(§2) In addition, a Control composition is prepared according to the composition in Table 3, except the activated alkene is omitted. Composition 3 with each activated alkene and the Control composition are then tested for malodor removal performance as described below.
(§3) n-Butanethiol and di-n-propoyl sulfide were chosen as chemical surrogates for sulfur-containing odors such as onion, garlic, sewage, etc. n-Butylamine was used as a representative for amine-containing odors such as fish, pet urine, etc.
(§4) 5 ml of Composition 3 and the Control composition are placed into a separate GC-MS vial and each spiked with 5 microliters of butanthiol or butylamine. The compositions are first equilibrated at room temperature for 2 hours, then incubated at 35° C. for 30 minutes. The headspace of each vial is finally sampled using a polydimethyl siloxane (“PDMS”)/SPME fiber and analyzed by GC/MS. The head space concentrations of odor molecules are measured and the data are normalized to the Control composition.
(§5) Numbers less than 1 denote reduced levels of malodor molecules present in the headspace of Composition 3 relative to the Control composition. The reduced malodor level is attributed to high malodor control efficacy of Composition 3.

Series [2] in a line: Headspace SPME GC/MS malodor removal by aqueous Composition 3 (butanethiol). To be noted: 0.5 wt. % activated alkene in Composition 3, pH 7, no catalyst; 2 hours room temperature, 30 minutes 35° C.; numbers less than 1 = reduced malodor. On the procedure:
as §1, §2, §3, §4, §5

Series [3] can be described thus: Headspace SPME GC/MS butanethiol removal by aqueous Composition 5 (activated alkene and catalyst). To be noted: for Butanethiol head space concentration normalized to Control, catalyst DBU / Butanethiol head space concentration normalized to Control, catalyst n-hexyl amine / Butanethiol head space concentration normalized to Control, catalyst n-octylamine: Composition 5, 0.5 wt. % activated alkene + catalyst, pH 7; for Butanethiol head space concentration normalized to Control, catalyst DBU: DBU 1:150 molar ratio of catalyst:alkene; for Butanethiol head space concentration normalized to Control, catalyst n-hexyl amine: n-hexyl amine 1:15 molar ratio of catalyst:alkene; for Butanethiol head space concentration normalized to Control, catalyst n-octylamine: n-octylamine 1:15 molar ratio of catalyst:alkene; for Butanethiol head space concentration normalized to Control, No catalyst: Composition 5, 0.5 wt. % activated alkene, pH 7, no catalyst. On the procedure: [Worded in the source for another target; this target is reported under the same test.] as §4

Series [4] can be described thus: Vapor-phase butanethiol removal, static headspace GC/MS. Particulars: 1 μL sample in 10 mL vial, 30 minutes room temperature. As for the experimental part:
This example illustrates the malodor removal efficacy of exemplary activated alkenes-catalyst systems in the vapor phase. […] A 1 μL sample of each activated alkene-catalyst combination listed in Table 7 is pipeted into an individual 10 mL silanized headspace vial. The vials are sealed and allowed to equilibrate for at least 12 hours. This procedure is repeated 2 times for each sample. After the equilibration period, 1.5 mL of the target malodor standard vapor is injected into each 10 mL vial. For thiol analysis, the vials containing a sample+malodor standard are held at room temperature for 30 minutes. Then, a 1 mL headspace syringe is then used to inject 250 μL of each sample/malodor into a GC/MS split/splitless inlet. A GC pillow is used for the amine analysis to shorten the run times. Samples are then analyzed using a GC/MS with a DB-5, 20 m, 1 μm film thickness column with an MPS-2 autosampler equipment with static headspace function. Data is analyzed by ion extraction on each total ion current (56 for thiol) and the area is used to calculate the percent reduction from the malodor standard for each sample. Here, the results are reported as % reduction, and higher numbers represent higher reduction in butanethiol concentration.

The conditions of series [5]: benchmark values; cited from earlier work.

Take `CC(C)=CCCC(C)=CC=O` [Citral]: in series [1], the “Butylamine head space concentration normalized to Control composition, Replicate 1” value amounted to 0.0 and the “Butylamine head space concentration normalized to Control composition, Replicate 2” value is 0.0. Moreover, in series [2], the “Butanethiol head space concentration normalized to Control composition, Replicate 1” value was determined as 0.1 and the “Butanethiol head space concentration normalized to Control composition, Replicate 2” value was 0.1.

Turning to `C/C=C/C(=O)C1=C(C)C=CCC1(C)C` [Damascenone], in series [1], the “Butylamine head space concentration normalized to Control composition, Replicate 1” value was determined as 1.0 and the “Butylamine head space concentration normalized to Control composition, Replicate 2” value is 1.1. Moreover, in series [2], the “Butanethiol head space concentration normalized to Control composition, Replicate 1” value is given as 0.6 and the “Butanethiol head space concentration normalized to Control composition, Replicate 2” value is recorded as 0.7. In series [3], the “Butanethiol head space concentration normalized to Control, catalyst DBU” value worked out at 0.8; the “Butanethiol head space concentration normalized to Control, catalyst n-hexyl amine” value is listed as 0.4; the “Butanethiol head space concentration normalized to Control, catalyst n-octylamine” value is listed as 0.6; the “Butanethiol head space concentration normalized to Control, No catalyst” value is recorded as 0.6.

Take `C/C=C/C(=O)C1C(C)C=CCC1(C)C` (stereo not drawn) [Delta Damascone]: in series [4], the “% reduction in butanethiol concentration, 1% w/w DBU” value (“% reduction … 1% w/w DBU” below) amounted to 99.6%; the “% reduction in butanethiol concentration, 1% w/w n-hexylamine” value (“% reduction … 1% w/w n-hexylamine” for short) is on record as 30.7%; the “% reduction in butanethiol concentration, 1% w/w n-octylamine” value (shortened to “% reduction … 1% w/w n-octylamine”) is given as 24.4%; the “% reduction in butanethiol concentration, No catalyst” value (“% reduction … No catalyst” below) worked out at 21%.

Turning to `CCOC(=O)/C=C/C(=O)OCC` [Diethyl Fumarate], in series [1], the “Butylamine head space concentration normalized to Control composition, Replicate 1” value worked out at 0.1 and the “Butylamine head space concentration normalized to Control composition, Replicate 2” value was determined as 0.1. Moreover, in series [2], the “Butanethiol head space concentration normalized to Control composition, Replicate 1” value is listed as 0.4 and the “Butanethiol head space concentration normalized to Control composition, Replicate 2” value is given as 0.3. In series [3], the “Butanethiol head space concentration normalized to Control, catalyst DBU” value is 0.2; the “Butanethiol head space concentration normalized to Control, catalyst n-hexyl amine” value came to 0; the “Butanethiol head space concentration normalized to Control, catalyst n-octylamine” value was 0; the “Butanethiol head space concentration normalized to Control, No catalyst” value is 0.3. Further, in series [4], the “% reduction … 1% w/w DBU” value is reported as 63%; the “% reduction … 1% w/w n-hexylamine” value worked out at 3.8%; the “% reduction … 1% w/w n-octylamine” value is 11.2%; the “% reduction … No catalyst” value is reported as 20.7%.

`CCOC(=O)/C=C\C(=O)OCC` [Diethyl Maleate]: in series [1], the “Butylamine head space concentration normalized to Control composition, Replicate 1” value was 0.5 and the “Butylamine head space concentration normalized to Control composition, Replicate 2” value worked out at 0.0. For the same molecule, in series [2], the “Butanethiol head space concentration normalized to Control composition, Replicate 1” value was determined as 0.7 and the “Butanethiol head space concentration normalized to Control composition, Replicate 2” value was 0.6. In series [3], the “Butanethiol head space concentration normalized to Control, catalyst DBU” value is recorded as 0.5; the “Butanethiol head space concentration normalized to Control, catalyst n-hexyl amine” value was 0.1; the “Butanethiol head space concentration normalized to Control, catalyst n-octylamine” value worked out at 0.04; the “Butanethiol head space concentration normalized to Control, No catalyst” value came out at 0.7. In addition, in series [4], the “% reduction … 1% w/w DBU” value is on record as 44.3%; the “% reduction … 1% w/w n-hexylamine” value is 13.3%; the “% reduction … 1% w/w n-octylamine” value is reported as 8.1%; the “% reduction … No catalyst” value is given as 24.5%.

As for `CCc1occc(=O)c1O` [Ethyl Maltol], in series [1], the “Butylamine head space concentration normalized to Control composition, Replicate 1” value is 0.0 and the “Butylamine head space concentration normalized to Control composition, Replicate 2” value turned out to be 0.0. Also, in series [2], the “Butanethiol head space concentration normalized to Control composition, Replicate 1” value turned out to be 0.8 and the “Butanethiol head space concentration normalized to Control composition, Replicate 2” value stood at 0.9.

Take `C=CC(=O)OCCCCCC` [Hexyl Acrylate]: in series [1], the “Butylamine head space concentration normalized to Control composition, Replicate 1” value was determined as 0.6 and the “Butylamine head space concentration normalized to Control composition, Replicate 2” value is listed as 0.5. In series [2], the “Butanethiol head space concentration normalized to Control composition, Replicate 1” value is 0.1 and the “Butanethiol head space concentration normalized to Control composition, Replicate 2” value was determined as 0.1. In series [3], the “Butanethiol head space concentration normalized to Control, catalyst DBU” value is recorded as 0.2; the “Butanethiol head space concentration normalized to Control, catalyst n-hexyl amine” value is reported as 0.02; the “Butanethiol head space concentration normalized to Control, catalyst n-octylamine” value is on record as 0; the “Butanethiol head space concentration normalized to Control, No catalyst” value worked out at 0.1. In series [4], the “% reduction … 1% w/w DBU” value is 23.1%; the “% reduction … 1% w/w n-hexylamine” value was 11.2%; the “% reduction … 1% w/w n-octylamine” value is 21%; the “% reduction … No catalyst” value was 31.9%.

As to `C=CC(=O)N(C)C` [N,N Dimethyl Acrylamide], in series [1], the “Butylamine head space concentration normalized to Control composition, Replicate 1” value is 1.0 and the “Butylamine head space concentration normalized to Control composition, Replicate 2” value came out at 1.0. Moreover, in series [2], the “Butanethiol head space concentration normalized to Control composition, Replicate 1” value is given as 0.8 and the “Butanethiol head space concentration normalized to Control composition, Replicate 2” value is on record as 0.8. Besides, in series [3], the “Butanethiol head space concentration normalized to Control, catalyst DBU” value was determined as 0.3; the “Butanethiol head space concentration normalized to Control, catalyst n-hexyl amine” value turned out to be 0.6; the “Butanethiol head space concentration normalized to Control, catalyst n-octylamine” value is listed as 0.7; the “Butanethiol head space concentration normalized to Control, No catalyst” value was 0.8.

Regarding `O=C1C=CC(=O)N1C1CCCCC1` [N-Cyclohexylmaleimide], in series [1], the “Butylamine head space concentration normalized to Control composition, Replicate 1” value is 0.0 and the “Butylamine head space concentration normalized to Control composition, Replicate 2” value stood at 0.0. In series [2], the “Butanethiol head space concentration normalized to Control composition, Replicate 1” value is recorded as 0.0 and the “Butanethiol head space concentration normalized to Control composition, Replicate 2” value amounted to 0.0.

With `OC[C@H]1O[C@@H]2O[C@H]3[C@H](O)[C@@H](O)[C@@H](O[C@H]4[C@H](O)[C@@H](O)[C@@H](O[C@H]5[C@H](O)[C@@H](O)[C@@H](O[C@H]6[C@H](O)[C@@H](O)[C@@H](O[C@H]7[C@H](O)[C@@H](O)[C@@H](O[C@H]8[C@H](O)[C@@H](O)[C@@H](O[C@H]1[C@H](O)[C@H]2O)O[C@@H]8CO)O[C@@H]7CO)O[C@@H]6CO)O[C@@H]5CO)O[C@@H]4CO)O[C@@H]3CO` [beta-cyclodextrin], in series [5], the “ambient temperature water solubility (benchmark)” value is on record as 1.8 g/100 ml.

As to `O=C1C=CC(=O)N1c1ccccc1` [n-phenylmaleimide], in series [4], the “% reduction … 1% w/w DBU” value turned out to be 10%; the “% reduction … 1% w/w n-hexylamine” value is recorded as 1.5%; the “% reduction … 1% w/w n-octylamine” value was determined as 2.2%; the “% reduction … No catalyst” value is on record as 12.4%.

Consider “N,N dimethylacrylamide-4- methoxy phenol”, for which, in series [4], the “% reduction … 1% w/w DBU” value is reported as 95.2%; the “% reduction … 1% w/w n-hexylamine” value is 50%; the “% reduction … 1% w/w n-octylamine” value came to 22.3%; the “% reduction … No catalyst” value worked out at 28.2%.

Consider “hydroxypropyl modified beta cyclodextrin”, for which the “ambient temperature water solubility (benchmark)” value in series [5] is at least 60 g/100 ml.
